In this assay the target is Neurotensin receptor type 1 (Homo sapiens, UniProt P30989). The assay is described as follows: Displacement of [3H]neurotensin from NTR1 in human HT29 cells after 30 mins by liquid scintillation spectrometry. The settings on record: for Activity: HT-29. It is filed as cell-based.

pIC50: −log10 of the molar value. Where a SMILES comes first, the peptide text is derived from it.

Sequence of Neurotensin receptor type 1 (P30989 whole entry): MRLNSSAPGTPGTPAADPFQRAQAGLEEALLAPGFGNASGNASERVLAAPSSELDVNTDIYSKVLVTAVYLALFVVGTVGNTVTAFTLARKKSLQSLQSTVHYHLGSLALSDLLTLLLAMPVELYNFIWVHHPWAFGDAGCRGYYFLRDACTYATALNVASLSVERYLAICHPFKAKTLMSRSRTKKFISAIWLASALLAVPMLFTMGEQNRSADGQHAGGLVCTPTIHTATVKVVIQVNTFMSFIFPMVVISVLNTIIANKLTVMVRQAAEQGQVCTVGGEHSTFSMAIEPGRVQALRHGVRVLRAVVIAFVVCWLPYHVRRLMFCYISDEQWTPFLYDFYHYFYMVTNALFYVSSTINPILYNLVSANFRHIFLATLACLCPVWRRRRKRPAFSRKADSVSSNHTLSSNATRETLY

Regarding `CSCC[C@H](NC(=O)CCCCn1cc(CCCC(=O)N[C@@H](CCCNC(=N)N)C(=O)N[C@@H](CCCNC(=N)N)C(=O)N2CCC[C@H]2C(=O)N[C@@H](Cc2ccc(O)cc2)C(=O)N[C@@H](CC(C)C)C(=O)N[C@@H](CC(C)C)C(=O)O)nn1)C(=O)N[C@@H](CCC(N)=O)C(=O)N[C@@H](CO)C(=O)N[C@H](C(=O)N1CCC[C@H]1C(=O)N[C@@H](CC(C)C)C(=O)O)[C@@H](C)O`, the Activity entry was “Dose-dependent effect”.

For `CC(C)C[C@H](NC(=O)[C@H](CC(C)C)NC(=O)[C@H](Cc1ccc(O)cc1)NC(=O)[C@@H]1CCCN1C(=O)[C@H](CCCNC(=N)N)NC(=O)[C@@H](N)CCCNC(=N)N)C(=O)O` (H-RRPYLL-OH), the pIC50 (in general, −log10 of the IC50, conventionally taken in molar units) was 9.00.

Turning to `CSCC[C@H](NC(=O)CCCCn1cc(CCCC(=O)N[C@@H](CCCNC(=N)N)C(=O)N[C@@H](CCCNC(=N)N)C(=O)N2CCC[C@H]2C(=O)N[C@@H](Cc2ccc(O)cc2)C(=O)N[C@@H](CC(C)C)C(=O)N[C@@H](CC(C)C)C(=O)O)nn1)C(=O)N[C@@H](CCC(N)=O)C(=O)N[C@@H](CO)C(=O)N[C@H](C(=O)N1CCC[C@H]1C(=O)N[C@@H](CC(C)C)C(=O)O)[C@@H](C)OP(=O)(O)O`, the pIC50 was 5.08 and the Activity entry is “Dose-dependent effect”.

Molecule `CSCC[C@H](NC(=O)CCCCn1cc(CCCC(=O)N[C@@H](CCCN=C(N)N)C(=O)N[C@@H](CCCN=C(N)N)C(=O)N2CCC[C@H]2C(=O)N[C@@H](Cc2ccc(O)cc2)C(=O)N[C@@H](CC(C)C)C(=O)N[C@@H](CC(C)C)C(=O)O)nn1)C(=O)N[C@@H](CCC(N)=O)C(=O)N[C@@H](CO)C(=O)N[C@H](C(=O)N1CCC[C@H]1C(=O)N[C@@H](CC(C)C)C(=O)O)[C@@H](C)O` had a pIC50 of 6.15.

The values are drawn from ChEMBL document CHEMBL1155503, “Synthesis of neurotensin(8-13)-phosphopeptide heterodimers via click chemistry” (Bioorg Med Chem Lett, 2010).
